Key:
[1] = target: T1, UreG (Helicobacter pylori, UniProt Q09066); experiment: biochemical; type: biochemical, H. pylori
Method: A Malachite Green Phosphate Assay Kit (Abcam) was utilized to quantify the hydrolysis of GTP by UreG under various conditions. […] GTPase activity of UreG was triggered through the addition of 10 mM KHCO3, after which the reaction was incubated at 37°C for 30 min; then, the free phosphate from hydrolysis of GTP was determined. […] To eliminate the potential effect of small compounds on malachite green assay, the assay included a subtraction of the absorbance of reaction with the same amounts of compounds but without UreG enzyme for each reading.

[2] = test system: H. pylori; experiment: Growth of H. pylori in neutral and acidic brucella broth (OD600); type: cell-based; conditions: for OD600(pH5): acidic brucella broth pH 5.0, 24 h, control 0.93
[3] = target: T1, UreG; experiment: Fluorescence-quenching titration of UreG (Kd); type: binding, H. pylori
Method: (§1) Using the relation between the emission intensity at 310 nm and molecule-UreG–bound species, as well as one site-binding model, the Kd values were calculated by a logistic regression model referring to a previous report. […] All fluorescence readings were corrected for the dilution effect.

[4] = target: UreGΔNKXD (Helicobacter pylori, UniProt Q09066, D148A/K146A/N145A); experiment: Fluorescence-quenching titration of mutant UreGΔNKXD; type: binding, H. pylori
Chain of UreGΔNKXD (Q09066 whole entry N145A/K146A/D148A): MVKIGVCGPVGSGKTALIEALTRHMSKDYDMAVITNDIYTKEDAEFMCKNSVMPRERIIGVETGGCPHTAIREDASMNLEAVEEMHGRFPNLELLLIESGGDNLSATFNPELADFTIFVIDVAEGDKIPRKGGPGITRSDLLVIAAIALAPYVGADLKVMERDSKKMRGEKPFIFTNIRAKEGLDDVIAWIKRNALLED
Method: To further confirm the interface between UreG and small molecules generated from computational models, we then constructed an UreG mutant (UreGΔNKXD) by replacing selected residues (N145, K146, D148) with Ala to disrupt G4 motif, which abolished GTP binding of UreG (S17 Fig).
as §1

[5] = target: T1, UreG; experiment: Nickel binding of UreG (UV absorption at 337 nm) in presence of compounds; parameters: species or system H. pylori; conditions: for percentage of Ni(II)-bound UreG: UreG 5 μM
Method: We further investigated whether binding of cmpd4 or cmpd8 to the guanine nucleotide binding pocket perturbed the Ni(II) coordination to the protein. Considering that coordination of Ni(II) to UreG results in a (Cys)→Ni(II) LMCT band centered at about 337 nm, we monitored the UV absorption of UreG samples (5 μM) at 337 nm upon titration of nickel with or without the supplement of cmpd4 or cmpd8. As shown in S19 Fig, cmpd4 at a ratio of [cmpd4]/[UreG] of 5 and 10 reduced the percentages of Ni(II)-bound UreG to ca. 75% and 30%, respectively, and a similar phenomenon was also observed for cmpd8 (S19 Fig), indicative of the disruption of nickel binding property of UreG through targeting nucleotide binding site.
Supplementary file pbio.2003887.s021.png: S19 Fig Effect of cmpd4 and cmpd8 on nickel binding property of UreG. UreG (5 μM) in HEPES buffer (5 μM GTP, 1 mM MgSO4) was titrated with NiSO4 in the presence of cmpd4 or cmpd8 at various concentrations. Titration of nickel ion into UreG samples led to the increasing of absorption at 337 nm, the highest of which was set as 100% for the percentage of Ni-bound UreG. The supplement of cmpd4 and cmpd8 reduced the percentage of Ni-bound UreG. […] (PNG) Click here for additional data file.

[6] = test system: AGS cells exposed to H. pylori; experiment: Cell infection model: AGS cells exposed to H. pylori pre-cultured with inhibitors; type: cell-based, human; conditions: for Normalized cell survival (%): H. pylori pre-cultured with 10 μM inhibitor 24 h, MOI 20, 24 h infection, Hp alone 28.8%
[7] = test system: AGS cells with H. pylori infection; experiment: AGS cells with H. pylori infection, inhibitors administrated to the AGS cells (S20 Fig); type: cell-based, human; conditions: 10 μM administrated to AGS cells with H. pylori infection
Description: As expected, low viability of AGS with the supplement of cmpd4 and cmpd8 was observed due to the toxicity of small compounds to mammalian cells. […] (PNG) Click here for additional data file.

T1 sequence (Q09066 whole entry): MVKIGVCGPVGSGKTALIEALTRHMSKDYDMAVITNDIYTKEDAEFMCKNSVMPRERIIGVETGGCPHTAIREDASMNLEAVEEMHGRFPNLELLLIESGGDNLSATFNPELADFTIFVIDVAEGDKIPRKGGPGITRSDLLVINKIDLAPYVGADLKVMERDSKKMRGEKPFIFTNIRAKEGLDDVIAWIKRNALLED

**Q.** How did the IC50 [1] turn out when Cc1cccc(N2CCN(C(=O)c3cc(S(=O)(=O)N(C)C)ccc3N3CCCC3)CC2)c1C [cmpd4] was run?
**A.** 16.8 ± 6.5 µM

**Q.** What about the “Normalized GTPase activity(%)” value ([1]; log[μM] 0) of the same compound?
**A.** 97.2%

**Q.** And the “Normalized GTPase activity(%)” value ([1]; log[μM] 0.60206)?
**A.** 90.0%

**Q.** And the “Normalized GTPase activity(%)” value ([1]; log[μM] 0.90309)?
**A.** 69.0%

**Q.** And the “Normalized GTPase activity(%)” value ([1]; log[μM] 1.20412)?
**A.** 56.9%

**Q.** What about the “Normalized GTPase activity(%)” value ([1]; log[μM] 1.50515) of the same compound?
**A.** 41.1%

**Q.** And the “Normalized GTPase activity(%)” value ([1]; log[μM] 1.79588)?
**A.** 28.1%

**Q.** What about the “Normalized GTPase activity(%)” value ([1]; log[μM] 2.09691) of the same compound?
**A.** 11.6%

**Q.** And the “Normalized GTPase activity(%)” value ([1]; log[μM] 2.39794)?
**A.** 16.3%

**Q.** What about the “Normalized GTPase activity(%)” value ([1]; purified Ni-UreG (5 µM), 20 µM small compound) of the same compound?
**A.** 43.9%

**Q.** And the inhibition at 20 µM ([1]; read-out: inhibition of the GTPase activity of UreG)?
**A.** 37 to 72%

**Q.** What about the “OD600(pH5)” value [2] of the same compound?
**A.** 0.46

**Q.** What about the “OD600(pH5)” value ([2]; listed as cmp4) of the same compound?
**A.** 0.464

**Q.** And the “OD600 (pH7)” value ([2]; neutral medium, 24 h, control 0.18)?
**A.** 0.141

**Q.** And the Kd [3]?
**A.** 10.6 ± 2.3 µM

**Q.** What about the “fluorescence intensity (a.u.)” value ([3]; log(ligand[μM]) 0) of the same compound?
**A.** 2682 a.u.

**Q.** What about the “fluorescence intensity (a.u.)” value ([3]; log(ligand[μM]) 0.30103) of the same compound?
**A.** 2455.33 a.u.

**Q.** And the “fluorescence intensity (a.u.)” value ([3]; log(ligand[μM]) 0.60206)?
**A.** 2056.33 a.u.

**Q.** What about the “fluorescence intensity (a.u.)” value ([3]; log(ligand[μM]) 0.90309) of the same compound?
**A.** 1714.67 a.u.

**Q.** What about the “fluorescence intensity (a.u.)” value ([3]; log(ligand[μM]) 1.20412) of the same compound?
**A.** 1176.67 a.u.

**Q.** And the “fluorescence intensity (a.u.)” value ([3]; log(ligand[μM]) 1.50515)?
**A.** 615.233 a.u.

**Q.** And the “fluorescence intensity (a.u.)” value ([3]; log(ligand[μM]) 1.80618)?
**A.** 297.433 a.u.

**Q.** What about the “fluorescence intensity (a.u.)” value ([3]; log(ligand[μM]) -0.30103) of the same compound?
**A.** 2867.67 a.u.

**Q.** And the “fluorescence intensity (a.u.)” value ([3]; log(ligand[μM]) -0.60206)?
**A.** 2962.67 a.u.

**Q.** What about the “fluorescence intensity (a.u.)” value ([3]; log(ligand[μM]) -1.30103) of the same compound?
**A.** 3018 a.u.

**Q.** And the Kd [4]?
**A.** 34.7 µM

**Q.** And the “fluorescence intensity (a.u.)” value ([4]; log(ligand[μM]) 0)?
**A.** 2206 a.u.

**Q.** What about the “fluorescence intensity (a.u.)” value ([4]; log(ligand[μM]) 0.30103) of the same compound?
**A.** 2092 a.u.

**Q.** And the “fluorescence intensity (a.u.)” value ([4]; log(ligand[μM]) 0.60206)?
**A.** 1907 a.u.

**Q.** What about the “fluorescence intensity (a.u.)” value ([4]; log(ligand[μM]) 0.90309) of the same compound?
**A.** 1710.67 a.u.

**Q.** And the “fluorescence intensity (a.u.)” value ([4]; log(ligand[μM]) 1.20412)?
**A.** 1454.33 a.u.

**Q.** And the “fluorescence intensity (a.u.)” value ([4]; log(ligand[μM]) 1.50515)?
**A.** 989.433 a.u.

**Q.** And the “fluorescence intensity (a.u.)” value ([4]; log(ligand[μM]) 1.80618)?
**A.** 540.3 a.u.

**Q.** And the “fluorescence intensity (a.u.)” value ([4]; log(ligand[μM]) 2.10721)?
**A.** 237.1 a.u.

**Q.** What about the “fluorescence intensity (a.u.)” value ([4]; log(ligand[μM]) -0.30103) of the same compound?
**A.** 2278 a.u.

**Q.** And the “fluorescence intensity (a.u.)” value ([4]; log(ligand[μM]) -1.30103)?
**A.** 2063.67 a.u.

**Q.** And the “percentage of Ni(II)-bound UreG” value ([5]; [cmpd4]/[UreG] of 5)?
**A.** ca. 75%

**Q.** And the “percentage of Ni(II)-bound UreG” value ([5]; [cmpd4]/[UreG] of 10)?
**A.** ~30%

**Q.** What about the “absorption at 337 nm” value ([5]; [compound]/[UreG] 5, Ni 0 μM) of the same compound?
**A.** 5.14E-05

**Q.** And the “absorption at 337 nm” value ([5]; [compound]/[UreG] 5, Ni 1 μM)?
**A.** 0.00539

**Q.** What about the “absorption at 337 nm” value ([5]; [compound]/[UreG] 5, Ni 2 μM) of the same compound?
**A.** 0.00942

**Q.** What about the “absorption at 337 nm” value ([5]; [compound]/[UreG] 5, Ni 3 μM) of the same compound?
**A.** 0.01515

**Q.** What about the “absorption at 337 nm” value ([5]; [compound]/[UreG] 5, Ni 4 μM) of the same compound?
**A.** 0.01614

**Q.** And the “absorption at 337 nm” value ([5]; [compound]/[UreG] 5, Ni 5 μM)?
**A.** 0.01885

**Q.** And the “absorption at 337 nm” value ([5]; [compound]/[UreG] 5, Ni 6 μM)?
**A.** 0.02176

**Q.** And the “absorption at 337 nm” value ([5]; [compound]/[UreG] 5, Ni 7 μM)?
**A.** 0.02335

**Q.** And the “absorption at 337 nm” value ([5]; [compound]/[UreG] 5, Ni 8 μM)?
**A.** 0.02298

**Q.** What about the “absorption at 337 nm” value ([5]; [compound]/[UreG] 10, Ni 0 μM) of the same compound?
**A.** -8.22E-04

**Q.** What about the “absorption at 337 nm” value ([5]; [compound]/[UreG] 10, Ni 1 μM) of the same compound?
**A.** 0.00376

**Q.** What about the “absorption at 337 nm” value ([5]; [compound]/[UreG] 10, Ni 2 μM) of the same compound?
**A.** 0.00766

**Q.** And the “absorption at 337 nm” value ([5]; [compound]/[UreG] 10, Ni 3 μM)?
**A.** 0.00856

**Q.** What about the “absorption at 337 nm” value ([5]; [compound]/[UreG] 10, Ni 4 μM) of the same compound?
**A.** 0.00995

**Q.** And the “absorption at 337 nm” value ([5]; [compound]/[UreG] 10, Ni 5 μM)?
**A.** 0.01042

**Q.** What about the “absorption at 337 nm” value ([5]; [compound]/[UreG] 10, Ni 6 μM) of the same compound?
**A.** 0.01062

**Q.** What about the “absorption at 337 nm” value ([5]; [compound]/[UreG] 10, Ni 7 μM) of the same compound?
**A.** 0.01073

**Q.** What about the “absorption at 337 nm” value ([5]; [compound]/[UreG] 10, Ni 8 μM) of the same compound?
**A.** 0.00864

**Q.** And the “Normalized cell survival (%)” value [6]?
**A.** 70.3% ± 11.3%

**Q.** What about the “Normalized cell survival (%)” value ([6]; listed as cmp4) of the same compound?
**A.** 70.2703%

**Q.** And the “Ammonia in medium (mM)” value ([6]; H. pylori pre-cultured with 10 μM inhibitor, urea 10 mM, 24 h, Hp alone ca. 2.5 mM)?
**A.** around 1.1 mM

**Q.** What about the “Ammonia in medium” value ([6]; H. pylori pre-cultured with 10 μM inhibitor, urea 10 mM, 24 h, Hp alone ca. 2.5 mM, listed as cmp4) of the same compound?
**A.** 1.1872 mM

**Q.** What about the “Ammonia in medium” value [7] of the same compound?
**A.** 0.3373 mM

**Q.** And the “Normalized cell survival (%)” value [7]?
**A.** low viability

**Q.** And the “Normalized cell survival (%)” value ([7]; listed as cmp4)?
**A.** 22.5225%
